This assay deals with skin of the tail of the SKH2 mouse. As to the kind of experiment: Depigmenting activity on the skin of the tail of the SKH2 mouse. Details: key to depigmentation score: 0: natural pigmentation; −1: slight depigmentation; −2: moderate depigmentation; −3: marked depigmentation; −4: total depigmentation. As to conditions: adapalene 0.1%; for depigmentation score: 4 weeks topical; for depigmenting effect: topical, after 4 weeks, mequinol 2%. Format: in vivo. Here is the method:
The purpose of the present study is to evaluate the depigmenting activity of a composition comprising either (i) 2% of mequinol, (ii) 0.1% of adapalene or (iii) the combination of both of them (composition according to the invention) on the skin of the tail of the SKH2 mouse after 4 weeks of topical application.
The two formulations gel and gel-cream are also compared. The two formulations (20 μl) are applied topically on the tails of SKH2 mice separated into two groups (female mice about 9 weeks old) at the rate of one application per day for 5 days over a period of 4 weeks.
Evaluation is based on various clinical observations: once a week, the pigmentation is evaluated as a score on a scale from 0 to 4. The basis of scoring is as follows: • 0: natural pigmentation Depigmentation scale: scores −1 to −4 • −1: slight depigmentation • −2: moderate depigmentation • −3: marked depigmentation • −4: total depigmentation

Experimental findings from patent US20070148110A1, “Aqueous-alcoholic depigmenting gels comprising mequinol and adapalene” (GALDERMA RESEARCH & DEVELOPMENT, priority 2004, published 2007) are described below.

As for `COc1ccc(-c2ccc3cc(C(=O)O)ccc3c2)cc1C12CC3CC(CC(C3)C1)C2` [Adapalene, 6-[3-(1-adamantyl)-4-methoxyphenyl]-2-naphthoic acid], the depigmenting effect result is listed as “does not have a depigmenting effect”. For the setting “gel formulation”, the depigmentation score was found to be 0. Besides, the depigmentation score (gel-cream formulation) was 0.
Regarding `COc1ccc(O)cc1` [Mequinol, 4-hydroxyanisole], the depigmenting effect result was “significant depigmenting effect”.
